Earlier results in patent US9511030B2, “Controlled release particles” (priority 2011, dated 2016).

Row | SMILES | water solubility
1 | C=C(C)C(=O)O [Methacrylic acid] | 8.9 mass %
2 | CCCC1COC(Cn2cncn2)(c2ccc(Cl)cc2Cl)O1 (centres unmarked) [Propiconazole, 1-[2-(2,4-dichlorophenyl)-4-n-propyl-1,3-dioxolane-2-ylmethyl]-1H-1,2,4-triazole] | 110 ppm
